{"source": "ChEMBL document CHEMBL1158270", "about": "“Triangulynes A-H and trangulynic acid, new cytotxic polyacetylenes from the marine sponge Pellina triangulata” (1996)", "format_in_all_cases": "functional", "key": {"[1]": {"test_system": "CCRF-CEM", "experiment": "Cytotoxicity against human CCRF-CEM cells"}, "[2]": {"test_system": "HL-60", "experiment": "Cytotoxicity against human HL60 cells"}, "[3]": {"test_system": "K562", "experiment": "Cytotoxicity against human K562 cells"}, "[4]": {"test_system": "NCI-H226", "experiment": "Cytotoxicity against human NCI-H226 cells"}, "[5]": {"test_system": "NCI-H460", "experiment": "Cytotoxicity against human NCI-H460 cells"}, "[6]": {"test_system": "HCC 2998", "experiment": "Cytotoxicity against human HCC2998 cells"}, "[7]": {"test_system": "HCT-116", "experiment": "Cytotoxicity against human HCT116 cells"}, "[8]": {"test_system": "SW-620", "experiment": "Cytotoxicity against human SW620 cells"}, "[9]": {"test_system": "SF-268", "experiment": "Cytotoxicity against human SF268 cells"}, "[10]": {"test_system": "IGROV-1", "experiment": "Cytotoxicity against human IGROV1 cells"}, "[11]": {"test_system": "OVCAR-8", "experiment": "Cytotoxicity against human OVCAR8 cells"}, "[12]": {"test_system": "SK-OV-3", "experiment": "Cytotoxicity against human SKOV3 cells"}, "[13]": {"experiment": "Cytotoxicity against human Hs 578T cells"}, "[14]": {"test_system": "MDA-MB-435", "experiment": "Cytotoxicity against human MDA-MB-435 cells"}, "[15]": {"test_system": "T47D", "experiment": "Cytotoxicity against human T47D cells"}, "[16]": {"conditions": "read-out: pLC50 (the source's name) (converted)"}}}
{"smiles": "C#C[C@H](O)/C=C/CCCCCCCCCC/C=C\\CCCCCCC[C@H](O)C#CC#CC#CCO", "note": "[TRIANGULYNE A]", "values": [{"measurement": "GI50", "setting": "[1]", "value": 0.17, "unit": "µM"}, {"measurement": "LC50", "setting": "[1]", "value": 33.9, "unit": "µM"}, {"measurement": "TGI", "setting": "[1]; read-out: pTGI (converted)", "value": 0.776, "unit": "µM"}, {"measurement": "GI50", "setting": "[2]", "value": 0.0832, "unit": "µM"}, {"measurement": "LC50", "setting": "[2]", "value": 25.1, "unit": "µM"}, {"measurement": "TGI", "setting": "[2]; read-out: pTGI (converted)", "value": 3.63, "unit": "µM"}, {"measurement": "GI50", "setting": "[3]", "value": 0.372, "unit": "µM"}, {"measurement": "LC50", "setting": "[3]", "value": 37.2, "unit": "µM"}, {"measurement": "TGI", "setting": "[3]; read-out: pTGI (converted)", "value": 2.29, "unit": "µM"}, {"measurement": "GI50", "setting": "[4]", "value": 0.603, "unit": "µM"}, {"measurement": "CC50", "setting": "[4]; [16]", "value": 8.13, "unit": "µM"}, {"measurement": "TGI", "setting": "[4]; read-out: pTGI (converted)", "value": 1.91, "unit": "µM"}, {"measurement": "GI50", "setting": "[5]", "value": 0.347, "unit": "µM"}, {"measurement": "CC50", "setting": "[5]; [16]", "value": 42.7, "unit": "µM"}, {"measurement": "TGI", "setting": "[5]; read-out: pTGI (converted)", "value": 1.82, "unit": "µM"}, {"measurement": "GI50", "setting": "[6]", "value": 0.257, "unit": "µM"}, {"measurement": "LC50", "setting": "[6]", "value": 2.19, "unit": "µM"}, {"measurement": "TGI", "setting": "[6]; read-out: pTGI (converted)", "value": 0.692, "unit": "µM"}, {"measurement": "GI50", "setting": "[7]", "value": 0.129, "unit": "µM"}, {"measurement": "LC50", "setting": "[7]", "value": 3.47, "unit": "µM"}, {"measurement": "TGI", "setting": "[7]; read-out: pTGI (converted)", "value": 0.661, "unit": "µM"}, {"measurement": "GI50", "setting": "[8]", "value": 0.339, "unit": "µM"}, {"measurement": "LC50", "setting": "[8]", "value": 9.33, "unit": "µM"}, {"measurement": "TGI", "setting": "[8]; read-out: pTGI (converted)", "value": 1.29, "unit": "µM"}, {"measurement": "GI50", "setting": "[9]", "value": 0.347, "unit": "µM"}, {"measurement": "CC50", "setting": "[9]; [16]", "value": 12.9, "unit": "µM"}, {"measurement": "TGI", "setting": "[9]; read-out: pTGI (converted)", "value": 3.89, "unit": "µM"}, {"measurement": "GI50", "setting": "[10]", "value": 0.49, "unit": "µM"}, {"measurement": "CC50", "setting": "[10]; [16]", "value": 8.13, "unit": "µM"}, {"measurement": "TGI", "setting": "[10]; read-out: pTGI (converted)", "value": 1.82, "unit": "µM"}, {"measurement": "GI50", "setting": "[11]", "value": 0.129, "unit": "µM"}, {"measurement": "CC50", "setting": "[11]; [16]", "value": 21.9, "unit": "µM"}, {"measurement": "TGI", "setting": "[11]; read-out: pTGI (converted)", "value": 0.851, "unit": "µM"}, {"measurement": "GI50", "setting": "[12]", "value": 2.82, "unit": "µM"}, {"measurement": "CC50", "setting": "[12]; [16]", "value": 37.2, "unit": "µM"}, {"measurement": "TGI", "setting": "[12]; read-out: pTGI (converted)", "value": 7.94, "unit": "µM"}, {"measurement": "GI50", "setting": "[13]", "value": 2.4, "unit": "µM"}, {"measurement": "CC50", "setting": "[13]; [16]", "value": 57.5, "unit": "µM"}, {"measurement": "TGI", "setting": "[13]; read-out: pTGI (converted)", "value": 8.32, "unit": "µM"}, {"measurement": "GI50", "setting": "[14]", "value": 0.17, "unit": "µM"}, {"measurement": "CC50", "setting": "[14]; [16]", "value": 4.47, "unit": "µM"}, {"measurement": "TGI", "setting": "[14]; read-out: pTGI (converted)", "value": 0.832, "unit": "µM"}, {"measurement": "GI50", "setting": "[15]", "value": 1.51, "unit": "µM"}, {"measurement": "CC50", "setting": "[15]; [16]", "value": 47.9, "unit": "µM"}, {"measurement": "TGI", "setting": "[15]; read-out: pTGI (converted)", "value": 7.24, "unit": "µM"}]}
